Test results as given in the supplement of paper PMC13380429.

Key:
Settings in all cases: 72 h
Caco-2 [1] = assay: cell viability relative to DMSO; higher = less toxic
Calu-3 [2] = assay: as above
HepG2 [3] = assay: as above
U2OS [4] = assay: as above
Vero E6 [5] = assay: as above
Caco-2 [6] = assay: relative viability EC50 (midpoint between 100% and the lowest measured viability); higher = less toxic
Calu-3 [7] = assay: as above
HepG2 [8] = assay: as above
U2OS [9] = assay: as above
Vero E6 [10] = assay: as above
Caco-2 [11] = assay: drug sensitivity score (DSS) for viability; higher = more toxic; extreme values may be limits of the assay
Calu-3 [12] = assay: as above
HepG2 [13] = assay: as above
U2OS [14] = assay: as above
Vero E6 [15] = assay: as above

| Structure (SMILES) | cell viability (Caco-2 [1]; 1 nM) [%] | cell viability (Caco-2 [1]; 10 nM) [%] | cell viability (Caco-2 [1]; 100 nM) [%] | cell viability (Caco-2 [1]; 1000 nM) [%] | cell viability (Caco-2 [1]; 10000 nM) [%] | cell viability (Calu-3 [2]; 1 nM) [%] | cell viability (Calu-3 [2]; 10 nM) [%] | cell viability (Calu-3 [2]; 100 nM) [%] | cell viability (Calu-3 [2]; 1000 nM) [%] | cell viability (Calu-3 [2]; 10000 nM) [%] | cell viability (HepG2 [3]; 1 nM) [%] | cell viability (HepG2 [3]; 10 nM) [%] | cell viability (HepG2 [3]; 100 nM) [%] | cell viability (HepG2 [3]; 1000 nM) [%] | cell viability (HepG2 [3]; 10000 nM) [%] | cell viability (U2OS [4]; 1 nM) [%] | cell viability (U2OS [4]; 10 nM) [%] | cell viability (U2OS [4]; 100 nM) [%] | cell viability (U2OS [4]; 1000 nM) [%] | cell viability (U2OS [4]; 10000 nM) [%] | cell viability (Vero E6 [5]; 1 nM) [%] | cell viability (Vero E6 [5]; 10 nM) [%] | cell viability (Vero E6 [5]; 100 nM) [%] | cell viability (Vero E6 [5]; 1000 nM) [%] | cell viability (Vero E6 [5]; 10000 nM) [%] | relative viability EC50 (Caco-2 [6]) [µM] | relative viability EC50 (Calu-3 [7]) [µM] | relative viability EC50 (HepG2 [8]) [µM] | relative viability EC50 (U2OS [9]) [µM] | relative viability EC50 (Vero E6 [10]) [µM] | drug sensitivity score (Caco-2 [11]) | drug sensitivity score (Calu-3 [12]) | drug sensitivity score (HepG2 [13]) | drug sensitivity score (U2OS [14]) | drug sensitivity score (Vero E6 [15]) |
| --- | --- | --- | --- | --- | --- | --- | --- | --- | --- | --- | --- | --- | --- | --- | --- | --- | --- | --- | --- | --- | --- | --- | --- | --- | --- | --- | --- | --- | --- | --- | --- | --- | --- | --- | --- |
| N#Cc1ccc2[nH]c(O)c(-c3ccc(CN4CCOCC4)cn3)c2c1 [AZD1080] | 96.3 | 100 | 106 | 113 | 84.6 | 105 | 107 | 100 | 112 | 91.2 | 107 | 99.3 | 102 | 112 | 82.7 | 95.3 | 105 | 95.8 | 105 | 99.5 | 99.1 | 97.6 | 98.2 | 108 | 82 | > 10 | > 10 | > 10 | > 10 | > 10 | 0.1 | 0 | 0.2 | 0 | 0.2 |
| CC[C@@H]1C(=O)N(C)c2cnc(Nc3ccc(C(=O)NC4CCN(C)CC4)cc3OC)nc2N1C1CCCC1 [BI-2536] | 94.4 | 96.5 | 56.8 | 61.3 | 31.5 | 93.3 | 97.3 | 85.4 | 77.7 | 3.8 | 106 | 92.2 | 27.4 | 24.2 | 7.7 | 97 | 103 | 53.1 | 28 | 8.1 | 96.2 | 98.7 | 103 | 37.4 | 1.1 | 0.148 | 1.66 | 0.0445 | 0.132 | 0.805 | 13.6 | 8.6 | 26.1 | 19.8 | 12.8 |
| CC1(C)CCC(C)(C)c2cc(C3(c4ccc(C(=O)O)cc4)OCCO3)ccc21 [BMS-649] | 92.7 | 95.5 | 93.1 | 100 | 101 | 96.7 | 99 | 100 | 91.5 | 109 | 109 | 87.6 | 113 | 108 | 103 | 95.2 | 98.4 | 101 | 103 | 99 | 96 | 97.6 | 100 | 92.4 | 97.8 | > 10 | > 10 | > 10 | > 10 | > 10 | 0 | 0 | 0 | 0 | 0 |
